Drawing on patent US8841309B2, “Substituted pyrazines and their use in the treatment of disease” (Boehringer Ingelheim International GmbH, priority 2012, dated 2014), this text covers IC50 for 23 molecules.

This assay deals with T1, ENaC (Mus musculus, UniProt Q61180+Q9WU38+Q9WU39).
T1 construct: Mouse kidney M-1 cells were cultivated in DMEM containing 5% FCS and 5 μM dexamethasone; endogenous in cells; host or cells: mouse kidney M-1 cells
T1 sequence (Q61180 1-699): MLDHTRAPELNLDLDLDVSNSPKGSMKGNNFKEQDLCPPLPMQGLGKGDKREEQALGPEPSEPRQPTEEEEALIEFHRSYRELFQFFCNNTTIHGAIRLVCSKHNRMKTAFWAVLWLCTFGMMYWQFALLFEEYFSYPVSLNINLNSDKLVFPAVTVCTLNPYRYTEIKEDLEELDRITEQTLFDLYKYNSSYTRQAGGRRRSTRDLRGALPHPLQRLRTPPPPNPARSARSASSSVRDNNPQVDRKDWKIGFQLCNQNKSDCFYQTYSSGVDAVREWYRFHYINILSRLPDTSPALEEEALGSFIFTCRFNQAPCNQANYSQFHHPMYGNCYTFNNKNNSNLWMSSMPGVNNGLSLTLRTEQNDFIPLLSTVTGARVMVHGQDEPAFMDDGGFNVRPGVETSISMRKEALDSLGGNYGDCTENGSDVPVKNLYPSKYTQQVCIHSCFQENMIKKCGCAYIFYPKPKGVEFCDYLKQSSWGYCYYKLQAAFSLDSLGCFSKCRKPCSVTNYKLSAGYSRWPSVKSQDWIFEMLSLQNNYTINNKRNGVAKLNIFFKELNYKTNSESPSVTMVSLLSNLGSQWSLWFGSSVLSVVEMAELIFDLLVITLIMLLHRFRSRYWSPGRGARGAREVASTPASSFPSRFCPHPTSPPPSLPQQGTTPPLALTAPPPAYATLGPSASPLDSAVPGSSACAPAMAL
T1 sequence (Q9WU38 1-638): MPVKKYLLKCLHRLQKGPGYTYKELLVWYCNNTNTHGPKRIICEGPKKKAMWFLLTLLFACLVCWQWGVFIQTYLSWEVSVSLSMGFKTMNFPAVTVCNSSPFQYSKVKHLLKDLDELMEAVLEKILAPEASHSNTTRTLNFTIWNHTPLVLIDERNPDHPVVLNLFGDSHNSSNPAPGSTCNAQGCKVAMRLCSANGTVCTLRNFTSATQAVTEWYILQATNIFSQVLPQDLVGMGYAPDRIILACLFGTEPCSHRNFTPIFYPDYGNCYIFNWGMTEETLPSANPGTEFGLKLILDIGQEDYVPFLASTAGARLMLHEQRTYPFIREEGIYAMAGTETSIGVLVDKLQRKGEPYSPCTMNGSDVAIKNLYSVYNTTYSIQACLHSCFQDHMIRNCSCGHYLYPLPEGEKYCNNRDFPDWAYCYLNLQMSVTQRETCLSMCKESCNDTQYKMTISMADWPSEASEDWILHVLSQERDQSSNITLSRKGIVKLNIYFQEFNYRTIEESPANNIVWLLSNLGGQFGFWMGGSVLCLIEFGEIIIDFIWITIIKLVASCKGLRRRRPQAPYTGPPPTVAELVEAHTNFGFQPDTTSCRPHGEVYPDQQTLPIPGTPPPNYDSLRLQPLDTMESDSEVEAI
T1 sequence (Q9WU39 1-655): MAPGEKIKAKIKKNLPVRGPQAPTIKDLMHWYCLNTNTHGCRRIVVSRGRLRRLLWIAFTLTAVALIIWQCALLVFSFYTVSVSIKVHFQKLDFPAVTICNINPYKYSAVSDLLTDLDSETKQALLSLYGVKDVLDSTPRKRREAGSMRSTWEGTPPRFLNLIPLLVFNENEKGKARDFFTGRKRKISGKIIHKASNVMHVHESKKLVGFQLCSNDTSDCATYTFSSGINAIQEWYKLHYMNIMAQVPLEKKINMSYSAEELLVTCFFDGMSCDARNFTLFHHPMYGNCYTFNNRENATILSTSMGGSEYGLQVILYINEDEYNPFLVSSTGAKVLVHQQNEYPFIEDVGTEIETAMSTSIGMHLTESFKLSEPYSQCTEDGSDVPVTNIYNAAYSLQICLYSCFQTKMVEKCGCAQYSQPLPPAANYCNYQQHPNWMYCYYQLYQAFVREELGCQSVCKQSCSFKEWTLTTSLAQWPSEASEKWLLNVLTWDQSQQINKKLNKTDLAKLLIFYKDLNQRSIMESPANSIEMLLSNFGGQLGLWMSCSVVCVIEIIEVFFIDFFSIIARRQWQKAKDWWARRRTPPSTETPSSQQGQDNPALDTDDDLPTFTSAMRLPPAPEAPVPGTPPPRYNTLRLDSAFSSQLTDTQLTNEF
Kind of assay: Ussing chamber: short circuit current (I_sc) in mouse kidney M-1 cells, amiloride-sensitive. In kind it is cell-based. To be noted: compound applied to apical solution, 37° C. As to the method: Ussing Chamber: Mouse kidney M-1 cells were cultivated in DMEM containing 5% FCS and 5 μM dexamethasone for 10 to 12 days on polyester transwell filters. Filters were inserted into a teflon-coated well-plate which fit into the in-house ussing chamber system. Prior to measurement the medium of M-1 cells was replaced with Caco-2 transport buffer (Invitrogen, Germany). During measurements, the Ussing chamber temperature was kept at 37° C. Short circuit currents (I_sc) were measured in the voltage-clamp mode using an in-house built amplifier (Boehringer Ingelheim, Biberach) with the software package Lab View for data acquisition and analysis. The transepithelial electrical resistance (TEER) was determined by the application of voltage steps of ±5 mV every 5 sec. Compounds were administered at a final concentration of 3 μM or at increasing concentrations (1-3-10 μM) to the apical solution. At the end of each experiment the amiloride sensitive I_SC was measured by adding 3 μM amiloride to the apical compartment. Results are expressed as inhibition in percent of the amiloride effect or as IC50.
Molecule `C[N+]1(CC(=O)Nc2cccc(F)c2)CCC[C@H](NC(N)=NC(=O)c2nc(Cl)c(N)nc2N)C1` (mixture of isomers) [Example 70.4] yielded an IC50 of 31 nM.

In the case of `C[N+]1(CC(=O)NCc2ccc(Cl)cc2)CCC[C@@H](N/C(N)=N/C(=O)c2nc(Cl)c(N)nc2N)C1` (mixture of isomers) [Example 70.5], 45 nM corresponded to half-maximal inhibition (IC50). Molecule `CCNC(=O)C[N+]1(C)CCC[C@H](N/C(N)=N/C(=O)c2nc(Cl)c(N)nc2N)C1` (mixture of isomers) [Example 70.6] returned an IC50 of 46 nM. With `C[N+]1(CC(=O)NCc2ccc(Cl)cc2)CCC[C@H](N/C(N)=N/C(=O)c2nc(Cl)c(N)nc2N)C1` (mixture of isomers) [Example 71.1] the figure was 30.6 nM; with `C[N+]1(Cc2ccccc2)CCC[C@H](N/C(N)=N/C(=O)c2nc(Cl)c(N)nc2N)C1` (stereo in doubt) [Example 71, (S)-1-Benzyl-3-[N′-(3,5-diamino-6-chloro-pyrazine-2-carbonyl)-guanidino]-1-methyl-piperidinium chloride], 81 nM. `COC(=O)c1cccc(C[N+]2(C)CCC[C@H](N/C(N)=N/C(=O)c3nc(Cl)c(N)nc3N)C2)c1` (stereo in doubt) [Example 72, (S)-3-[N′-(3,5-Diamino-6-chloro-pyrazine-2-carbonyl)-guanidino]-1-(3-methoxycarbonyl-benzyl)-1-methyl-piperidinium chloride] displayed an IC50 of 122 nM. `N/C(=N\C(=O)c1nc(Cl)c(N)nc1N)NC1C[N+]2(CC(=O)O)CCC1CC2` (centres unmarked) [Example 1, 1-Carboxymethyl-3-[N′-(3,5-diamino-6-chloro-pyrazine-2-carbonyl)-guanidino]-1-azoniabicyclo[2.2.2]octane bromide] had an IC50 of 468 nM. With `COc1cc(C[N+]23CCC(CC2)C(N/C(N)=N/C(=O)c2nc(Cl)c(N)nc2N)C3)cc(OC)c1OC` (centres unmarked) [Example 2, 3-[N′-(3,5-Diamino-6-chloro-pyrazine-2-carbonyl)-guanidino]-1-(3,4,5-trimethoxybenzyl)-1-azoniabicyclo[2.2.2]octane chloride], inhibition was half-maximal at 126 nM (IC50). Consider `N/C(=N\C(=O)c1nc(Cl)c(N)nc1N)NC1C[N+]2(CC(=O)Nc3ccccc3)CCC1CC2` (centres unmarked) [Example 3, 3-[N′-(3,5-Diamino-6-chloro-pyrazine-2-carbonyl)-guanidino]-1-phenylcarbamoylmethyl-1-azoniabicyclo[2.2.2]octane chloride], for which inhibition was half-maximal at 26 nM (IC50). `N/C(=N\C(=O)c1nc(Cl)c(N)nc1N)NC1C[N+]2(Cc3ccccc3)CCC1CC2` (centres unmarked) [Example 4, 1-Benzyl-3-[N′-(3,5-diamino-6-chloro-pyrazine-2-carbonyl)-guanidino]-1-azoniabicyclo[2.2.2]octane bromide] yielded a concentration for half-maximal inhibition (IC50) of 43 nM. For `N/C(=N\C(=O)c1nc(Cl)c(N)nc1N)N[C@H]1C[N+]2(Cc3ccccc3)CCC1CC2` [Example 5, (R)-1-Benzyl-3-[N′-(3,5-diamino-6-chloro-pyrazine-2-carbonyl)-guanidino]-1-azoniabicyclo[2.2.2]octane bromide], the IC50 turned out to be 460 nM. With `N/C(=N\C(=O)c1nc(Cl)c(N)nc1N)N[C@@H]1C[N+]2(Cc3ccccc3)CCC1CC2` [Example 6, (S)-1-Benzyl-3-[N′-(3,5-diamino-6-chloro-pyrazine-2-carbonyl)-guanidino]-1-azoniabicyclo[2.2.2]octane bromide] the figure was 28 nM; with `N/C(=N\C(=O)c1nc(Br)c(N)nc1N)N[C@@H]1C[N+]2(Cc3ccccc3)CCC1CC2` [Example 6.1, (S)-1-Benzyl-3-[N′-(3,5-diamino-6-bromo-pyrazine-2-carbonyl)-guanidino]-1-azoniabicyclo[2.2.2]octane bromide], 29 nM. For the molecule `COc1ccc(C[N+]23CCC(CC2)[C@H](N/C(N)=N/C(=O)c2nc(Cl)c(N)nc2N)C3)cc1` [Example 7, (S)-3-[N′(3,5-Diamino-6-chloro-pyrazine-2-carbonyl)-guanidino]-1-(4-methoxybenzyl)-1-azoniabicyclo[2.2.2]octane chloride], half-maximal inhibition (IC50) was put at 20 nM. Molecule `CC(C)(C)c1ccc(C[N+]23CCC(CC2)[C@H](N/C(N)=N/C(=O)c2nc(Cl)c(N)nc2N)C3)cc1` [Example 8, (S)-1-(4-tert-Butyl-benzyl)-3-[N′-(3,5-diamino-6-chloro-pyrazine-2-carbonyl)-guanidino]-1-azoniabicyclo[2.2.2]octane chloride] registered an IC50 of 41 nM. The result for `NC(=NC(=O)c1nc(Cl)c(N)nc1N)N[C@@H]1C[N+]2(Cc3cccc(SC(F)(F)F)c3)CCC1CC2` [Example 9] reads 3 nM.

For `NC(=NC(=O)c1nc(Cl)c(N)nc1N)N[C@@H]1C[N+]2(Cc3ccccc3SC(F)(F)F)CCC1CC2` [Example 10], the half-inhibitory concentration (IC50) was determined as 60 nM. The result for `N/C(=N\C(=O)c1nc(Cl)c(N)nc1N)N[C@@H]1C[N+]2(Cc3ccc4ccccc4n3)CCC1CC2` [Example 11, (S)-3-[N′-(3,5-Diamino-6-chloro-pyrazine-2-carbonyl)-guanidino]-1-quinolin-2-ylmethyl-1-azoniabicyclo[2.2.2]octane chloride] reads 29 nM; that for `N/C(=N\C(=O)c1nc(Cl)c(N)nc1N)N[C@@H]1C[N+]2(Cc3ccc(C(F)(F)F)nc3)CCC1CC2` [Example 12, (S)-3-[N′-(3,5-Diamino-6-chloro-pyrazine-2-carbonyl)-guanidino]-1-(6-trifluoromethyl-pyridin-3-ylmethyl)-1-azonia-bicyclo[2.2.2]octane chloride], 63 nM. As for `N/C(=N\C(=O)c1nc(Cl)c(N)nc1N)N[C@@H]1C[N+]2(Cc3ccccn3)CCC1CC2` [Example 13, (S)-3-[N′-(3,5-Diamino-6-chloro-pyrazine-2-carbonyl)-guanidino]-1-pyridin-2-ylmethyl-1-azoniabicyclo[2.2.2]octane chloride], the IC50 is 90 nM. Turning to `N/C(=N\C(=O)c1nc(Cl)c(N)nc1N)N[C@@H]1C[N+]2(Cc3ccc(F)cc3)CCC1CC2` [Example 14, (S)-3-[N′-(3,5-Diamino-6-chloro-pyrazine-2-carbonyl)-guanidino]-1-(4-fluoro-benzyl)-1-azoniabicyclo[2.2.2]octane chloride], the IC50 was found to be 28 nM. The result for `NC(=NC(=O)c1nc(Cl)c(N)nc1N)N[C@@H]1C[N+]2(Cc3ccc(Cl)cc3)CCC1CC2` [Example 15] reads 18 nM; that for `COc1cccc(C[N+]23CCC(CC2)[C@H](NC(N)=NC(=O)c2nc(Cl)c(N)nc2N)C3)c1` [Example 16], 14 nM.

By IC50 is commonly meant the point on the concentration scale where inhibition reaches its midpoint. A low value points to inhibition by little substance.
